Results taken from ChEMBL document CHEMBL5576134, “Targeting Pancreatic Cancer with Novel Nicolaioidesin C Derivatives: Molecular Mechanism, In Vitro, and In Vivo Evaluations” (J Med Chem, 2024).
Activity calls are given as the source filed them. No cut-off for these calls is given here.

Experiments:
MIA PaCa-2 [1] = experiment: Preferential cytotoxicity against human MIA PaCa-2 cells in nutrient-deprived medium measured after 24 hrs by WST-8 cell counting analysis; assay type: functional
MIA PaCa-2 [2] = experiment: Antimetastatic activity in human MIA PaCa-2 cells in DMEM media assessed as inhibition of cell migration at 10 uM incubated for 36 hrs relative to control (reference value: 30%); assay type: functional
MIA PaCa-2 [3] = experiment: Preferential cytotoxicity against human MIA PaCa-2 cells in nutrient-deprived medium assessed as alteration in cell morphology by measuring membrane blebbing at 0.5 to 1 uM measured after 24 hrs by acridine orange and ethidium bromide dual fluorescent staining based microscopic analysis; assay type: functional; conditions: dose 0.5-1 µM
MIA PaCa-2 [4] = experiment: Antitumor activity against human MIA PaCa-2 cells xenografted in BALB/c/Nu/Nu mouse assessed as reduction in number of blood vessels in skin at 20 mg/kg, ip administered 5 times a week for 4 weeks; assay type: functional, organism-based
MIA PaCa-2 [5] = experiment: Antitumor activity against human MIA PaCa-2 cells xenografted in BALB/c/Nu/Nu mouse assessed as reduction in tumor cell density at 60 mg/kg, ip administered 5 times a week for 4 weeks by H and E staining based analysis; assay type: functional, organism-based
Mus musculus [6] = experiment: In-vivo modulation of PI3K/AKT/mTOR signalling pathway in human MIA PaCa-2 cells xenografted in BALB/c/Nu/Nu mouse assessed as downregulation of Akt phosphorylation at 60 mg/kg, ip administered 5 times a week for 4 weeks in presence of gemcitabine by Western blot analysis; assay type: functional, organism-based
[7] = Modulation of PI3K/AKT/mTOR signalling pathway in human MIA PaCa-2 cells in DMEM medium assessed as decrease in Akt phosphorylation at 5 uM measured for 6 hrs by Western blot analysis; assay type: cell-based; conditions: filed as modulator
Mus musculus [8] = experiment: In-vivo modulation of PI3K/AKT/mTOR signalling pathway in human MIA PaCa-2 cells xenografted in BALB/c/Nu/Nu mouse assessed as downregulation of CHOP level at 60 mg/kg, ip administered 5 times a week for 4 weeks in presence of gemcitabine by Western blot analysis; assay type: functional, organism-based
MIA PaCa-2 [9] = experiment: Induction of endoplasmic reticulum (ER) stress in human MIA PaCa-2 cells assessed as change in TRB3 level at 5 uM measured after 6 hrs by Western blot analysis; assay type: functional, cell-based
MIA PaCa-2 [10] = experiment: Preferential cytotoxicity against human MIA PaCa-2 cells in nutrient-deprived medium assessed as alteration in cell morphology by measuring membrane leakage at 0.5 to 1 uM measured after 24 hrs by acridine orange and ethidium bromide dual fluorescent staining based microscopic analysis; assay type: functional; conditions: dose 0.5-1 µM
MIA PaCa-2 [11] = experiment: Antimetastatic activity in human MIA PaCa-2 cells in DMEM media assessed as reduction in colony area at 20 uM incubated for 24 hrs by crystal violet staining-based assay; assay type: functional; parameters: scale not given: the % may be the effect or the level left
[12] = Modulation of PI3K/AKT/mTOR signalling pathway in human MIA PaCa-2 cells in DMEM medium assessed as decrease in mTOR phosphorylation at 5 uM measured for 6 hrs by Western blot analysis; assay type: cell-based; conditions: filed as modulator
MIA PaCa-2 [13] = experiment: Antitumor activity against human MIA PaCa-2 cells xenografted in BALB/c/Nu/Nu mouse assessed as reduction in number of blood vessels in skin at 60 mg/kg, ip administered 5 times a week for 4 weeks in presence of gemcitabine; assay type: functional, organism-based
MIA PaCa-2 [14] = experiment: Preferential cytotoxicity against human MIA PaCa-2 cells in nutrient-deprived medium assessed as alteration in cell morphology by measuring membrane rupture at 0.5 to 1 uM measured after 24 hrs by acridine orange and ethidium bromide dual fluorescent staining based microscopic analysis; assay type: functional; conditions: dose 0.5-1 µM
[15] = Modulation of PI3K/AKT/mTOR signalling pathway in human MIA PaCa-2 cells in DMEM medium assessed as downregulation of GRP78 expression incubated for 24 hrs in presence of gemcitabine by Western blot analysis; assay type: cell-based; conditions: filed as modulator, dose 1-5 µM

In the case of CC(C)=CCCC1=CC[C@H](C(=O)c2c(O)cccc2O)[C@@H](c2cccc(F)c2F)C1 (relative stereo), the PC50 (MIA PaCa-2 [1]) is reported as 0.34 µM, the inhibition at 10 µM (MIA PaCa-2 [2]) is reported as 77% and the Activity (MIA PaCa-2 [3]) is reported as “Active”. For the same compound, the Activity (MIA PaCa-2 [4]) was “Active”, the Activity (MIA PaCa-2 [5]) was “Active” and the Activity (Mus musculus [6]) was “Active”. For the same compound, the Activity [7] was “Active”, the Activity (Mus musculus [8]) was “Active” and the Activity (MIA PaCa-2 [9]) was “Active”. The Activity (MIA PaCa-2 [10]) was “Active”, the Activity (MIA PaCa-2 [11]) was 98% and the Activity [12] was “Active”. The Activity (MIA PaCa-2 [13]) was “Active”, the Activity (MIA PaCa-2 [14]) was “Active” and the Activity [15] was “Dose-Dependent Effect”.
